Results reported in paper PMC7261837, “Circumdatin D Exerts Neuroprotective Effects by Attenuating LPS-Induced Pro-Inflammatory Responses and Downregulating Acetylcholinesterase Activity In Vitro and In Vivo” (Frontiers in Pharmacology, 2020).

Key:
[1] = molecular target: Recombinant AChE (Homo sapiens, UniProt P22303); test: biochemical; conditions: SPR, 25°C, 1:1 Langmuir binding model; read-out: AChE Affinity Kd
Protocol: The experiments for surface plasmon resonance (SPR) interaction were conducted at 25°C using the Biacore T200 system (GE Healthcare, Sweden). Recombinant AChE diluted in sodium acetate buffer (100 mM, pH 4.5) was used as the stock for the following experiments. CM5 sensor chips were coupled with AChE using an amine coupling kit (GE Healthcare, Buckinghamshire, UK). Thereafter, different concentrations of compounds were injected as analytes using PBS-P (10mM phosphate buffer with 2.7 mM KCl and 137 mM NaCl, 0.05% polysorbate 20, […]) as running buffer. For binding assays, the analytes were introduced with a 60 s contact time followed by a 60 s dissociation time at a flow rate of 45 μl/min. The surface was regenerated with 10 mM glycine (pH 3.0) for 30 s. The affinity constants were calculated using the 1:1 Langmuir binding model of Biacore evaluation software (T200 Version 1.0).

[2] = system: BV-2 cells; test: LPS-induced NO production in BV-2 cells (Griess method); assay type: cell-based, murine; conditions: 1 μg/ml LPS, 24 h
Protocol: BV-2 cells (murine microglia cell line) was obtained from Peking Union Medical College, Cell Bank (Beijing, China) and maintained in DMEM containing 10% FBS. Cells were grown in a humidified atmosphere of 5% CO2 incubator at 37°C.
BV2 cells were seeded and incubated overnight, and followed by treatment with different doses of circumdatins for indicated period with or without LPS (1 μg/ml) stimulation. The cells without circumdatins and LPS treatment were used as the control group.
(§1) The NO levels in culture media was determined using a Griess method. Cells were treated with different concentrations of circumdatins in the presence or absence of LPS for 24 h. After that, the supernatant fraction of the culture media was collected and mixed with the same volume of Griess reagent (1% sulfanilamide/0.1% naphthyl ethylene diamine dihydrochloride/2% H3PO4). Then, the absorbance was measured at 540 nm using a microplate spectrophotometer (Thermo Scientifics, USA). The concentration of nitrite was calculated from a calibration curve obtained from standards sodium nitrite solutions.

[3] = system: BV-2 cells; test: ELISA for TNF-α and IL-1β in LPS-induced BV-2 cells; assay type: cell-based, murine; conditions: 1 μg/ml LPS, 10, 20, 50 μM, 6 h TNF-α, 8 h IL-1β
Protocol: Cells were treated with different concentrations of circumdatin D in the presence or absence of LPS for indicated time. Then, the culture media were collected and centrifuged at 12,000g, 4°C for 20 min. The levels of TNF-α and IL-β in the supernatants were determined by ELISA kits according to the manufacturer's instructions.

[4] = system: BV-2 cells; test: Western blot of iNOS and COX-2 in LPS-induced BV-2 cells; assay type: cell-based, murine; conditions: 1 μg/ml LPS, 10, 20, 50 μM, 24 h
Protocol: (§2) Total cell proteins were lysed using cell extraction buffer containing phenylmethylsulfonyl ﬂuoride and protease inhibitor cocktail. The cytosolic and nuclear extracts were collected using the Nuclear and Cytosolic extraction kit. The protein extracts were separated on SDS-PAGE and transferred to PVDF membranes (Millipore). The membrane was blocked with 5% nonfat milk for 1 h at room temperature, and incubated with indicated primary antibodies overnight at 4°C. After washing, the membrane was incubated with secondary antibodies conjugated to horseradish peroxidase (Proteintech, USA) at room temperature for 1 h. Then, the proteins of interest were visualized utilizing a chemiluminescence (ECL) detection system. The relative optical densities were analyzed using the Image Master™ 2D Elite software.

[5] = system: primary microglia cells; test: NO, TNF-α and IL-1β production in LPS-induced primary microglia; assay type: cell-based, Sprague Dawley rats; conditions: 1.0 μg/ml LPS, 10, 20, 50 μM
Protocol: Primary microglia were prepared from the cortical tissue of neonatal (1–3 d) Sprague Dawley rats as [Ni and Aschner (2010)] described and primary cortical neurons were isolated from embryos of pregnant Sprague Dawley rats of E-18 ([Zeng et al., 2012]). All experimental manipulations with the animals was reviewed and approved by the animal experimental ethics committee of Peking University. The animals used in the work were performed in accordance with the Animal Care and Use Guidelines of Peking University.
as §1
Cells were treated with different concentrations of circumdatin D in the presence or absence of LPS for indicated time. […] The levels of TNF-α and IL-β in the supernatants were determined by ELISA kits according to the manufacturer's instructions.

[6] = system: primary cortical neurons co-cultured with LPS-activated primary microglia; test: Microglia-neuron co-culture neuroprotection (MTT, TUNEL, crystal violet); assay type: cell-based, Sprague Dawley rats
Protocol: For co-culture experiments, primary microglia cells were seeded on the upper insert of Transwell chambers (pore size 3 μm; Corning Costar, USA) in 24-well plates, and neurons were grown in the lower plate wells. Circumdatin D was added to primary microglia cells 1 h before LPS stimulation. After 48 h of coculture, the neurons in the bottom of 24-well plate were collected for the following experiments.
[…] Then, the cells were stained with 1% crystal violet solution for 15 min. Images were captured with an optical microscope. Five different fields were selected for each group for observing cellular morphology.
[…] TUNEL staining was performed to detect apoptosis using in situ cell death detection Kit (Roche Diagnostics, Mannheim, Germany). Hochest 33342 staining was used to detect total cell nuclei. Images were taken and analyzed on a confocal microscopy (Leica, Germany). Six fields from each sample were randomly selected and analyzed.

[7] = system: C. elegans CL4176; test: Nematode toxicity assay; assay type: in vivo, Caenorhabditis elegans; conditions: 24 and 48 h, tested dose, Figure S19
Protocol: To eliminate the confounding factor of toxicity in the procedure, CL4176 worms were exposed to increasing concentrations of circumdatin D dissolved in NGM (0, 100, 200, 500 µM) for 24 h and 48h at 16 °C, respectively. Further, nematodes were exposed to 0.4% DMSO as the negative control. The animals were scored as live or death using a Motic dissecting microscope (Motic Inc., LTD., Hong Kong, China). The worms were considered as death if there was no response when gently touched with a platinum wire. Each independent assay included three NGM plates with thirty worms in each one. Toxicity was expressed as a total percentage of worm survival.

[8] = system: NF-κB signaling pathway; test: NF-κB p65 translocation and IKK/IκB phosphorylation in LPS-induced BV-2 cells; assay type: cell-based, murine; conditions: 1 μg/ml LPS, 10, 20, 50 μM, 3 h
Protocol: BV2 cells were seeded on glass coverslips and treated with circumdatin D in the presence or absence of LPS for indicated time. After that, the cells were washed twice with PBS and fixed with cold 4% paraformaldehyde for 30 min. Then, the cells were permeabilized with 0.1% Triton X-100 for 10 min and blocked with 5% bovine serum albumin for 1 h. After incubation with primary antibodies overnight at 4°C, the cells were incubated with Alexa Fluor 488-conjugated secondary antibodies (Proteintech, USA) for 1 h at room temperature. Furthermore, Hochest 33342 was added to stain cell nuclei. Images were acquired and analyzed using a confocal microscope (Leica, Germany).
as §2

Chain of Recombinant AChE (P22303 32-614): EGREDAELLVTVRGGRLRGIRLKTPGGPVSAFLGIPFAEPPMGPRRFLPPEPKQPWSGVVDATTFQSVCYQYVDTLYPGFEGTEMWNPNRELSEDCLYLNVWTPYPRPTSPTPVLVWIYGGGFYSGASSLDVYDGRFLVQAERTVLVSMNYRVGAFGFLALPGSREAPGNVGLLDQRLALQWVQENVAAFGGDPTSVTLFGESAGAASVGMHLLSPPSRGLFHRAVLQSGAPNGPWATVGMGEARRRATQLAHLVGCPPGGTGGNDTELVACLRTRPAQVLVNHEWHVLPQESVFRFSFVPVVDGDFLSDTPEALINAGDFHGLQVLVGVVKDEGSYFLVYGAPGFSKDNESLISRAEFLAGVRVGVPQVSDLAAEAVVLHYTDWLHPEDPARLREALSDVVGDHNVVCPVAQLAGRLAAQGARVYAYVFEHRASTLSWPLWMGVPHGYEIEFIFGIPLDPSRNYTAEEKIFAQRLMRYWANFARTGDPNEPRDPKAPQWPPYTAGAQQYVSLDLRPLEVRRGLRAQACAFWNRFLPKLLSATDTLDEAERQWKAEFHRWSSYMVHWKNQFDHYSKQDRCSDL

## COc1ccc2c(c1)C(=O)N1CCC[C@H]1c1nc3ccc(OC)cc3c(=O)n1-2 [circumdatin D]
[1]
  Kd: 1900 nM
[2]
  LPS-induced NO production: significant reduction of NO levels
[3]
  LPS-induced TNF-α and IL-1β production (ELISA): suppressed LPS-induced TNF-α and IL-1β production
[4]
  iNOS and COX-2 protein expression: reduced LPS-induced COX-2 and iNOS expression dose-dependently
[5]
  LPS-stimulated production of NO, TNF-α and IL-1β: significantly decreased the production of NO, TNF-α and IL-1β
[6]; microglia treated prior to LPS stimulation (1 μg/ml), 48 h
  neuron death in co-cultures (MTT): reduced neuron death
[6]; microglial-neuronal co-culture, 1 μg/ml LPS
  neuron apoptosis, TUNEL-positive cells: significantly reduced the numbers of TUNEL-positive cells
[6]; microglial-neuronal co-culture, 1 μg/ml LPS, 48 h
  neuronal morphology (crystal violet staining): markedly reversed the neuronal injury
[7]
  toxicity on CL4176 nematodes (survival): no toxicity on the normal survival of the nematode
[8]
  NF-κB nuclear translocation (immunofluorescence): inhibited LPS-induced NF-κB nuclear translocation
  nuclear NF-κB p65 levels (Western blot): reduced nuclear NF-κB p65 levels significantly
  phosphorylation levels of IKK and IκB: down-regulated the phosphorylation levels of IKK and IκB
